From patent US7790716B2, “Fab I inhibitors” (Affinium Pharmaceuticals, Inc., priority 1999, dated 2010)

Molecular target: T1, FabK (Streptococcus pneumoniae, UniProt Q9FBC5)
T1 sequence (Q9FBC5 1-324): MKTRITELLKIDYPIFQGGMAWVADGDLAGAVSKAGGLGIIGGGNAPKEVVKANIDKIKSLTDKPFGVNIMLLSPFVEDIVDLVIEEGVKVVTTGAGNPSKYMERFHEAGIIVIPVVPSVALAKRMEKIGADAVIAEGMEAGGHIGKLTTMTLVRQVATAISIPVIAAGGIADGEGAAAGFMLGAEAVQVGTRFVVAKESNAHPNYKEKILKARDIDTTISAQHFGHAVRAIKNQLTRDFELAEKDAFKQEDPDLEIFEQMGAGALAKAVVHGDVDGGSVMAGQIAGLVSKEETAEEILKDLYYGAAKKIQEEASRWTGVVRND
Assay: FabK Enzyme Inhibition Assay
Format: biochemical
Method: FabK catalyses the reduction of enoyl-ACPs with the concomitant oxidation of NADH. The reduction of crotonoyl-ACP to butyryl-ACP can be monitored by following the change in absorbance at 340 nm as NADH is oxidized.
Assays were carried out in Costar 3696 half-area plates in a final assay volume of 150 uL on a Spectramax platereader. The substrates (NADH and crotonoyl-ACP) were incubated with FabK enzyme in 100 mM N-[2-acetamido]-2 iminodiacetic acid (ADA), pH 6.5, 100 mM NH4Cl, 4% glycerol at 30° C. and the reaction was monitored at 340 nm.
Using the above assay, compounds were tested for inhibition of FabK. 30 uL of inhibitor was added to a well of the plate. 30 uL of a 250 uM stock of NADH and 60 uL of a 67.5 uM stock of crotonoyl ACP were then added to the well. The plate was incubated at 30° C. for 5 min. The reaction was initiated by adding 30 uL of a 6.25 nM stock of enzyme to the well (also pre-incubated at 30° C.). The reaction was then monitored at A340 nm for 30 min at 30° C. Positive controls were reactions without compound. Negative controls were reactions without enzyme and without compound. Final concentrations in the assay mixture were 25 uM crotonoyl-ACP, 50 uM NADH, and 1.25 nM enzyme.
IC50s were determined for compounds by carrying out the assay at 8 different concentrations of compound (100 uM-0.75 uM) in duplicate. The IC50 was calculated using Grafit software (v 4.09). […]

Fab K inhibition (result in words): dual Fab I/Fab K inhibitors
Compound: CN(Cc1cn(C)c2ccccc12)C(=O)/C=C/c1cnc2c(c1)CCC(=O)N2 [Example 62, (E)-N-methyl-N-(1-methyl-1H-indol-3-ylmethyl)-3-(7-oxo-5,6,7,8-tetrahydro-1,8-naphthyridin-3-yl)acrylamide]
